Experimental data as given in ChEMBL document CHEMBL5104090, “Recent advances in the medicinal chemistry of carbonic anhydrase inhibitors” (Eur J Med Chem, 2021).
pIC50, pKi: −log10 of the molar value. One block for each compound: values may come before it.

Key:
Carbonic anhydrase 1 [1] = target: T1, Carbonic anhydrase 1 (Homo sapiens, UniProt P00915)
Target sequence in this assay (P00915 whole entry): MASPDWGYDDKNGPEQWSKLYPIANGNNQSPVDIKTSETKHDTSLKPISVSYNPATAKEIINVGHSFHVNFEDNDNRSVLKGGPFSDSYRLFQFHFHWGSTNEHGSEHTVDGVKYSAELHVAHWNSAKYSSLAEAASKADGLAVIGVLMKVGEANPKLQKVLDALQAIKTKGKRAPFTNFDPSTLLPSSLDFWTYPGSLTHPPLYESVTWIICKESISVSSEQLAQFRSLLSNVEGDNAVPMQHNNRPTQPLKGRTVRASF

Carbonic anhydrase 12 [2] = target: T2, Carbonic anhydrase 12 (Homo sapiens, UniProt O43570)
Carbonic anhydrase 9 [3] = target: T3, Carbonic anhydrase 9 (Homo sapiens, UniProt Q16790)
Carbonic anhydrase 7 = Carbonic anhydrase 7 (Homo sapiens, UniProt P43166)
Carbonic anhydrase 7, sequence (P43166 whole entry): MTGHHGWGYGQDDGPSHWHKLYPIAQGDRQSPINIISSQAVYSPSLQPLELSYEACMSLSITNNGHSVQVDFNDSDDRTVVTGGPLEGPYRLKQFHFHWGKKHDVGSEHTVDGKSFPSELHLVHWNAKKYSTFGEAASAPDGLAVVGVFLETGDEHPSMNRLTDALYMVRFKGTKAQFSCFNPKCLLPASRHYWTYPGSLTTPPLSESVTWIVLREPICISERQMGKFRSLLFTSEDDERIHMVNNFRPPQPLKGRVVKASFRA

Carbonic anhydrase 9 [4] = target: T3, Carbonic anhydrase 9; remark: listed apart in the source
Carbonic anhydrase 2 [5] = target: T4, Carbonic anhydrase 2 (Homo sapiens, UniProt P00918)
Carbonic anhydrase 1 [6] = target: T1, Carbonic anhydrase 1; remark: listed apart in the source
Target sequence in this assay (P00915 whole entry): as the sequence (P00915 whole entry) above

Carbonic anhydrase 2 [7] = target: T4, Carbonic anhydrase 2; remark: listed apart in the source
Carbonic anhydrase 1 [8] = target: T1, Carbonic anhydrase 1; remark: listed apart in the source
Target sequence in this assay (P00915 whole entry): as above

HSC-3 = experiment: cells; assay type: functional; conditions: Homo sapiens, time 48 hrs
Description: Cytotoxicity against human HSC-3 cells assessed as cell growth inhibition measured after 48 hrs by MTT assay

Ca9-22 = experiment: cells; assay type: functional; conditions: Homo sapiens, time 48 hrs
Description: Cytotoxicity against human Ca9-22 cells assessed as cell growth inhibition measured after 48 hrs by MTT assay

HSC-2 = experiment: cells; assay type: functional; conditions: Homo sapiens, time 48 hrs
Description: Cytotoxicity against human HSC-2 cells assessed as cell growth inhibition measured after 48 hrs by MTT assay

HSC-4 = experiment: cells; assay type: functional; conditions: Homo sapiens, time 48 hrs
Description: Cytotoxicity against human HSC-4 cells assessed as cell growth inhibition measured after 48 hrs by MTT assay

Carbonic anhydrase 2 [9] = target: T4, Carbonic anhydrase 2; remark: listed apart in the source
Carbonic anhydrase 12 [10] = target: T2, Carbonic anhydrase 12; remark: listed apart in the source
Carbonic anhydrase 1 [11] = target: T1, Carbonic anhydrase 1; remark: listed apart in the source
Target sequence in this assay (P00915 whole entry): as above

Carbonic anhydrase 2 [12] = target: T4, Carbonic anhydrase 2; remark: listed apart in the source
Carbonic anhydrase 2 [13] = target: T4, Carbonic anhydrase 2; remark: listed apart in the source
Carbonic anhydrase 4 = Carbonic anhydrase 4 (Homo sapiens, UniProt P22748)
Carbonic anhydrase 4, sequence (P22748 whole entry): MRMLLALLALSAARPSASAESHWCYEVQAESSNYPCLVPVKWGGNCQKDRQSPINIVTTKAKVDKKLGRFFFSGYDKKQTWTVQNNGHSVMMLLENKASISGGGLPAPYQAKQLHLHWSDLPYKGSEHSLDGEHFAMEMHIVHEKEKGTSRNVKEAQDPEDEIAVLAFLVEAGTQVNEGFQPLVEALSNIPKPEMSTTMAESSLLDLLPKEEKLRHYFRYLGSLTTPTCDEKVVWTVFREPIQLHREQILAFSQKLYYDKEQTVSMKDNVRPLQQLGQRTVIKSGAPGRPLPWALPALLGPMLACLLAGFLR

Carbonic anhydrase 9 [14] = target: T3, Carbonic anhydrase 9; remark: listed apart in the source
Carbonic anhydrase 1 [15] = target: T1, Carbonic anhydrase 1; remark: listed apart in the source
Target sequence in this assay (P00915 2-261 limits assumed): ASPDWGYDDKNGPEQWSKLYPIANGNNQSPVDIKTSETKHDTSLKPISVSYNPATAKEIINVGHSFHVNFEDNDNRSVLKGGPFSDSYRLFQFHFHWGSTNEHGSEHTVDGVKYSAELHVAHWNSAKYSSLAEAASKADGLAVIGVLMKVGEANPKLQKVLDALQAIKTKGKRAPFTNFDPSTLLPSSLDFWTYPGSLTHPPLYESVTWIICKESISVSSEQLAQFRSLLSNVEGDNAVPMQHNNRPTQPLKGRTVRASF

Carbonic anhydrase 12 [16] = target: T2, Carbonic anhydrase 12; remark: listed apart in the source
Carbonic anhydrase 2 [17] = target: T4, Carbonic anhydrase 2; remark: listed apart in the source
Carbonic anhydrase 1 [18] = target: T1, Carbonic anhydrase 1; remark: listed apart in the source
Target sequence in this assay (P00915 whole entry): as the sequence (P00915 whole entry) above

Carbonic anhydrase 9 [19] = target: T3, Carbonic anhydrase 9; remark: listed apart in the source

T2 sequence (O43570 whole entry): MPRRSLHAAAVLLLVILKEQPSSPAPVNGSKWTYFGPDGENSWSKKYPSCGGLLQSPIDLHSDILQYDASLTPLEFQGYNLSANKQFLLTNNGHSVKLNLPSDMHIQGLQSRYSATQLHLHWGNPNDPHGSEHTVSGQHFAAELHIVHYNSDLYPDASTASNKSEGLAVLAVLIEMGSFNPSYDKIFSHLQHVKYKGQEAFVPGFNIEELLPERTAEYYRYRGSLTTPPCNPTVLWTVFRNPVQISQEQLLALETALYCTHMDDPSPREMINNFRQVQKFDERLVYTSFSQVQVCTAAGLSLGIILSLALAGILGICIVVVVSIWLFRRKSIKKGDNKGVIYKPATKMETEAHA

pKi (Carbonic anhydrase 1 [1]): < 4.00 | Kis (Carbonic anhydrase 12 [2]): 0.3 µM | pKi (Carbonic anhydrase 9 [3]): 5.51
Compound: O=C(O)CN1C(=O)S/C(=C/c2ccc(Cl)cc2)C1=O

pKi (Carbonic anhydrase 2 [7]): 9.17 | pKi (Carbonic anhydrase 1 [8]): 8.97
Compound: CCn1nc(-c2ccccc2)c(/N=N/c2ccc(Br)cc2)c1-c1ccccc1

pKi (Carbonic anhydrase 2 [13]): 11.05
Compound: NS(=O)(=O)c1ccc(C(=O)N[C@@H]2O[C@H](CO)[C@@H](O)[C@H](O)[C@H]2O)cc1

pKi (Carbonic anhydrase 2 [7]): 9.17 | pKi (Carbonic anhydrase 1 [8]): 8.97
Compound: Brc1ccc(/N=N/c2c(-c3ccccc3)nn(-c3ccccc3)c2-c2ccccc2)cc1

pKi (Carbonic anhydrase 1 [11]): < 5.00 | pKi (Carbonic anhydrase 2 [12]): 9.32 | pKi (Carbonic anhydrase 4): 8.19 | pKi (Carbonic anhydrase 9 [4]): 9.68
Compound: NS(=O)(=O)c1ccc(N/C=C/C(=O)c2ccc3ccccc3c2)cc1

pKi (Carbonic anhydrase 2 [9]): 7.29
Compound: O=C1/C(=C\c2ccc(O)c(CN3CCN(Cc4ccccc4)CC3)c2)Cc2ccccc21

pKi (Carbonic anhydrase 1 [1]): < 4.00 | Kis (Carbonic anhydrase 12 [2]): 0.3 µM
Compound: O=C(O)CN1C(=O)S/C(=C/c2ccccc2Cl)C1=O

Kis (Carbonic anhydrase 9 [14]): 3 nM
Compound: NS(=O)(=O)c1ccc(C(=O)NN2C(=O)c3cc(Cl)c(Cl)cc3C2=O)cc1

pKi (Carbonic anhydrase 1 [1]): < 4.00 | Kis (Carbonic anhydrase 12 [2]): 0.3 µM | pKi (Carbonic anhydrase 9 [3]): < 4.00
Compound: Cc1ccc(/C=C2/SC(=O)N(CC(=O)O)C2=O)cc1

pKi (Carbonic anhydrase 2 [5]): 7.43 | pKi (Carbonic anhydrase 1 [6]): 7.62
Compound: COc1ccc(C2CC(c3cccs3)=NN2c2ccc(S(N)(=O)=O)cc2)cc1OC (stereo not given)

pKi (Carbonic anhydrase 2 [7]): 9.17 | pKi (Carbonic anhydrase 1 [8]): 8.97
Compound: Brc1ccc(/N=N/c2c(-c3ccccc3)nn(-c3ccc(Br)cc3)c2-c2ccccc2)cc1

More lines, now with the values behind:

Compound: [SeH]c1ccccc1
pKi (Carbonic anhydrase 7): 6.12 | pKi (Carbonic anhydrase 9 [4]): 6.74

Compound: NS(=O)(=O)c1ccc(N2N=C(c3cccs3)CC2c2ccccc2)cc1 (stereo not given)
pKi (Carbonic anhydrase 2 [5]): 7.09 | pKi (Carbonic anhydrase 1 [6]): 7.62

Compound: Cc1cccc(C)c1[SeH]
pKi (Carbonic anhydrase 7): 6.12

Compound: COc1ccc(C2CC(c3ccc(F)cc3)=NN2c2ccc(S(N)(=O)=O)cc2)c(OC)c1 (stereo not given)
CC50 (HSC-3): 15000 nM | CC50 (Ca9-22): 15000 nM | CC50 (HSC-2): 15000 nM | CC50 (HSC-4): 15000 nM

Compound: [SeH]c1ccc2ccccc2c1
pKi (Carbonic anhydrase 7): 6.12 | pKi (Carbonic anhydrase 9 [4]): 6.34

Compound: NS(=O)(=O)c1ccc(N2N=C(c3cccs3)CC2c2ccc(C(F)(F)F)cc2)cc1 (stereo not given)
pKi (Carbonic anhydrase 2 [5]): 7.43 | pKi (Carbonic anhydrase 1 [6]): 7.62

Compound: Cc1ccc([SeH])cc1
pKi (Carbonic anhydrase 7): 6.12 | pKi (Carbonic anhydrase 9 [4]): 6.74

Compound: O=C1/C(=C\c2ccc(O)c(CN3CCN(c4ccc(F)cc4)CC3)c2)Cc2ccccc21
pKi (Carbonic anhydrase 2 [9]): 7.29

Compound: Brc1ccc(NN=C2C(c3ccccc3)=NN=C2c2ccccc2)cc1
pKi (Carbonic anhydrase 2 [7]): 9.17 | pKi (Carbonic anhydrase 1 [8]): 8.97

Compound: O=c1c2ccccc2nc(SCCN2CCCCC2)n1CCc1ccccc1
pKi (Carbonic anhydrase 12 [10]): 7.76 | pKi (Carbonic anhydrase 1 [11]): 6.64 | pKi (Carbonic anhydrase 2 [12]): 7.85 | pKi (Carbonic anhydrase 9 [4]): 7.71

Compound: COc1ccc(C2CC(c3ccc(Br)cc3)=NN2c2ccc(S(N)(=O)=O)cc2)c(OC)c1 (stereo not given)
CC50 (HSC-3): 15000 nM | CC50 (Ca9-22): 15000 nM | CC50 (HSC-2): 15000 nM | CC50 (HSC-4): 15000 nM

Compound: COc1ccccc1N1CCN(Cc2cc(/C=C3/Cc4ccccc4C3=O)ccc2O)CC1
pKi (Carbonic anhydrase 2 [9]): 7.29

Compound: COc1ccc(C2CC(c3ccccc3)=NN2c2ccc(S(N)(=O)=O)cc2)cc1OC (stereo not given)
CC50 (HSC-3): 15000 nM | CC50 (Ca9-22): 15000 nM | CC50 (HSC-2): 15000 nM | CC50 (HSC-4): 15000 nM

Compound: COc1ccc(C2CC(c3cccs3)=NN2c2ccc(S(N)(=O)=O)cc2)cc1 (stereo not given)
pKi (Carbonic anhydrase 2 [5]): 7.43 | pKi (Carbonic anhydrase 1 [6]): 7.62

Compound: COc1cccc(/C=C2/SC(=O)N(CC(=O)O)C2=O)c1
pKi (Carbonic anhydrase 1 [1]): < 4.00 | Kis (Carbonic anhydrase 12 [2]): 0.3 µM | pKi (Carbonic anhydrase 9 [3]): < 4.00

Compound: Cc1ccc2c(c1)C(=O)N(NC(=O)c1ccc(S(N)(=O)=O)cc1)C2=O
Kis (Carbonic anhydrase 9 [14]): 3 nM | Kis (Carbonic anhydrase 1 [15]): 84.3 nM

Compound: COc1ccc(C2CC(c3ccc(Cl)cc3)=NN2c2ccc(S(N)(=O)=O)cc2)cc1OC (stereo not given)
CC50 (HSC-3): 15000 nM | CC50 (Ca9-22): 15000 nM | CC50 (HSC-2): 15000 nM | CC50 (HSC-4): 15000 nM

Compound: O=C(O)CN1C(=O)S/C(=C/c2ccccc2)C1=O
pKi (Carbonic anhydrase 1 [1]): < 4.00 | Kis (Carbonic anhydrase 12 [2]): 0.3 µM

Compound: NS(=O)(=O)c1ccc(C(=O)NN2C(=O)c3ccccc3C2=O)cc1
Kis (Carbonic anhydrase 9 [14]): 3 nM

Compound: NS(=O)(=O)c1ccc(C(=O)NN2C(=O)c3nccnc3C2=O)cc1
Kis (Carbonic anhydrase 1 [15]): 84.3 nM

Compound: COc1ccc([SeH])cc1
pKi (Carbonic anhydrase 7): 6.12 | pKi (Carbonic anhydrase 9 [4]): 6.74

Compound: CS(=O)(=O)Cc1cc(O)c(O)c(Br)c1Br
pKi (Carbonic anhydrase 2 [9]): 7.37

Compound: NS(=O)(=O)c1ccc(N/C=C/C(=O)c2ccc(Br)cc2)cc1
pKi (Carbonic anhydrase 1 [11]): 5.07 | pKi (Carbonic anhydrase 2 [12]): 9.32 | pKi (Carbonic anhydrase 4): 8.19 | pKi (Carbonic anhydrase 9 [4]): 9.68

Compound: Cn1c(-c2ccccc2)nc2cc(B(O)O)ccc21
pIC50 (Carbonic anhydrase 12 [16]): < 6.44 | pIC50 (Carbonic anhydrase 2 [17]): < 6.44 | pIC50 (Carbonic anhydrase 1 [18]): < 6.44 | pIC50 (Carbonic anhydrase 9 [19]): < 6.44
